The record followed here is patent EP1273297A1, “Vitamin E for the treatment of diseases in which the binding of the transcription factor NF-KB and/or AP-1 to promoter target sites has a beneficial effect (eg AIDS, cardiac infarction)” (Deutsches Krebsforschungszentrum Stiftung des öffentlichen …, priority 2001, dated 2003).

The subject of assay [1] is NF-Y. The assay can be described thus: EMSA control, constitutive transcription factor, NF-Y binding oligonucleotide. It counts as cell-based. The following applies: J-27 nuclear extracts, 50 µM vitamin E (Fig. 3A). The procedure:
(§1) Nuclear extracts were prepared from J-27 T cells either non-induced (-) or induced (+) for 2 h by PMA (10 ng/ml) and ionomycin (0.5 µM) in the absence (-) or presence (+) of 50 µM vitamin E (VE) (added 1 h before induction). The inducible complex corresponding to NF-κB and AP-1 were indicated. A NF-Y binding oligonucleotide 5'[…]-3' was used for equal loading of nuclear extracts.
It was investigated whether vitamin E affects NF-KB and AP-1 binding to the CD95L promoter target sites. Nuclear extracts were prepared from J-27 T cells stimulated in the presence or absence of vitamin E. The NF-κB and AP-1 binding sites contained in the CD95L promoter were used as probes in an electrophoretic-mobility-shift-assay (EMSA). Stimulation of T cell with PMA and ionomycin induced binding of nuclear factors to the NF-κB and AP-1 sites of the CD95L promoter (Fig. 3A). These inducible binding complexes were either reduced or supershifted in the presence of antibodies against the subunits p50 and p65 of NF-κB or antibodies against the AP-1 family members Jun and Fos (Fig. 3B). […] As a control, the constitutive transcription factor […] was not affected by vitamin E (Fig. 3A). Experimental details are given in the legend to Figure 3.

The subject of assay [2] is peripheral blood lymphocytes of HIV positive individuals. The assay can be described thus: AICD of peripheral blood lymphocytes of HIV positive individuals stimulated with plate bound α-CD3. It counts as cell-based, human. The procedure:
Peripheral blood lymphocytes from HIV positive individuals (n = 33 Patients) and uninfected donors (11 Donors) were stimulated with plate bound (α-CD3 (50 µg/ml) for 48 h. Apoptosis was assessed by a drop in the forward to side scatter profile of apoptotic in comparison to living cells. The mean difference between patients and uninfected individuals is -7.23. 95% confidence interval is -13.7, -2.12.
Freshly isolated blood lymphocytes from 31 HIV positive individuals were stimulated with plate bound α-CD3 in the absence or presence of either 50 µg/ml CD95-Fc or 25 µM vitamin E (VE) (added 1 h before stimulation). IgG-1 (50 µg/ml), Sigma (St. Louis, MO, USA) was used as control. Cell death was assessed after 48 h stimulation.
To determine if vitamin E could reduce depletion of T cells from HIV positive individuals next the effects of vitamin E on AICD in peripheral blood lymphocytes of such individuals were analyzed. […] As opposed to lymphocytes from healthy donors lymphocytes isolated from HIV-infected individuals were more susceptible to apoptosis (Fig. 6A). […] Experimental details are given in the legend to Figure 6.

In assay [3] the test system is IFNγ mRNA. The assay can be described thus: IFNγ mRNA levels by RT-PCR (control) in day 6 T cells stimulated with plate bound α-CD3. It is filed as cell-based, human. As to conditions: 25 µM vitamin E 1 h, then α-CD3 12 h (Fig. 1B). On the procedure: The day 6 T cells were cultured in the absence or presence of 25 µM vitamin E for 1 h and then stimulated for 12 h with plate bound α-CD3. The mRNA was analyzed by RT-PCR using primers specific for CD95L (Eichhorst et al., Mol. Cell. Biol. 20 (2000), 7826) . For controls, primers for IFNγ and β-actin were used. The primers had the following sequences: • CD95L: sense-5'-[…]-3' antisense-5'[…]-3' • IFN-γ: sense-5'[…]-3' antisense-5'[…]-3' • human β-actin: sense-5'[…]-3' antisense-5'[…]-3'
(§2) Since activation-induced-cell-death (AICD) is a major cause of T cell depletion in AIDS and since supplementation of vitamin E is shown to increase T cell numbers, it was investigated whether vitamin E could protect from T cell depletion by AICD. To analyze the effect of vitamin E on T cell death, freshly isolated peripheral blood T cells were prestimulated for 6 days (referred to as day 6 cells) and subsequently restimulated via the TCR by plate-bound α-CD3 antibodies. […] CD95 (APO-1/Fas) and its ligand (CD95L) are known to play a major role in AICD of T cells. […] The concentration of vitamin E in plasma from healthy individuals normally ranges from 12-35 µM. Thus, vitamin E at physiological concentrations may attenuate AICD. Indeed, depending on the blood donors, vitamin E reduced AICD by 20-50%. […]

For assay [4], the system named is NF-κB. The assay can be described thus: EMSA, nuclear extracts of J-27 T cells, binding to CD95L promoter NF-κB sites. It counts as cell-based. As to conditions: J-27 nuclear extracts, PMA/ionomycin 2 h, 50 µM vitamin E added 1 h before induction (Fig. 3A). The procedure:
(§3) (A)^32P-labeled oligonucleotides containing the CD95L NF-κB (at the promoter -530 and -50 region) (Li-Weber et al., Eur. J. Immunol. 30 (2000), 661) and AP-1 (at the promoter +90 region) (Eichhorst et al., Mol. Cell. Biol. 20 (2000), 7826) binding sequences were analyzed by EMSA as described (Li-Weber et al., (2000). The EMSA probes had the following sequences: • CD95L NF-κB at-530: 5'-[…]-3' • CD95L NF-κB at-50: 5'-[…]-3' • CD95L AP-1 at +90: 5'-[…]-3'
as §1
(§4) It was investigated whether vitamin E affects NF-KB and AP-1 binding to the CD95L promoter target sites. Nuclear extracts were prepared from J-27 T cells stimulated in the presence or absence of vitamin E. The NF-κB and AP-1 binding sites contained in the CD95L promoter were used as probes in an electrophoretic-mobility-shift-assay (EMSA). Stimulation of T cell with PMA and ionomycin induced binding of nuclear factors to the NF-κB and AP-1 sites of the CD95L promoter (Fig. 3A). […]

Assay [5] concerns AP-1. The assay can be described thus: EMSA, nuclear extracts of J-27 T cells, binding to CD95L promoter AP-1 site. It counts as cell-based. The following applies: J-27 nuclear extracts, PMA/ionomycin 2 h, 50 µM vitamin E added 1 h before induction (Fig. 3A). On the procedure:
as §3, §1, §4

In assay [6] the test system is CD95L mRNA. The assay can be described thus: CD95L mRNA levels by RT-PCR in peripheral blood lymphocytes of HIV positive individuals. It counts as cell-based, human. The following applies: 25 µM vitamin E 1 h, α-CD3 12 h (Fig. 5). On the procedure:
Freshly isolated peripheral blood lymphocytes from HIV positive individuals were treated without or with vitamin E (VE) (25 µM) for 1 h and than stimulated with plate bound α-CD3 ([…]) for 12 h. CD95L mRNA levels were examined by RT-PCR (Eichhorst et al., 2000). Results from 5 individuals are shown.
It was investigated whether vitamin E could block CD95L expression in the peripheral blood lymphocytes of HIV positive individuals. Peripheral blood lymphocytes from such individuals were subjected to analysis of the CD95L mRNA expression levels in the absence or the presence of vitamin E. Different levels of the CD95L mRNA expression were found in lymphocytes from different HIV patients examined. […] Experimental details are given in the legend to Figure 5.

Assay [7] concerns NF-κB. The assay can be described thus: Luciferase reporter assay in J-27 T cells, three copies of the CD95L promoter NF-κB binding sites. It counts as cell-based. The following applies: J-27 cells, 50 µM vitamin E 1 h, PMA/ionomycin 8 h (Fig. 4). The source says:
(§5) J-27 T cells were transiently transfected with the luciferase reporter constructs containing the 0.86-kb CD95L promoter (Li-Weber et al., Eur. J. Immunol. 30 (2000), 661), or three copies of the NF-κB binding sites at -530 or -50 region (Li-Weber et al., Eur. J. Immunol. 30 (2000), 661) or the AP-1 motif at +90 region (Eichhorst et al., Mol. Cell. Biol. 20 (2000), 7826) of the CD95L promoter as described in Li-Weber et al., 2000. All promoter constructs are described in the cited references. A luciferase reporter construct containing three copies of the Egr consensus binding site was used as a control (Li-Weber et al., Eur. J. Immunol. 29 (1999), 3017). After overnight culture, the cells were divided and treated with vitamin E (VE) (50 µM) or the vitamin E solvent ethanol for 1 h and than further cultured in the absence (empty box) or presence (black box) of PMA (10 ng/ml) and ionomycin (0.5 µM). Luciferase activity was determined after 8 h of stimulation. Results represent the average of three to five independent transfection experiments.
(§6) To further investigate the effect of vitamin E on CD95L expression, the CD95L promoter (-860 to +100) or a minimal TATA promoter containing three copies of either the NF-B or the AP1 sites of the CD95L promoter were linked to the luciferase reporter gene and these constructs were transiently transfected into J-27 T cells. […]

Assay [8] deals with human peripheral blood T cells. The assay can be described thus: AICD of day 6 prestimulated peripheral blood T cells restimulated with plate-bound α-CD3, cell death by propidium iodide uptake. It counts as cell-based. The following applies: depending on the blood donors; vitamin E at physiological concentrations. The procedure: Freshly isolated blood T cells were stimulated by PHA and cultured in the presence of IL-2 for 6 days as described in Klas et al., Int. Immunol. 5 (1993), 625. The day 6 prestimulated T cells were then treated without or with 25 µM vitamin E (VE) Sigma (St. Louis, MO, USA) for 1 h and subsequently cultured in 96-well-flat-bottomed plates coated with α-CD3 (OKT3, 50 µg/ml; (DKFZ, Prof. Krammer) in the absence or presence of CD95-Fc (50 µg/ml; (DKFZ, Prof. Krammer, Dhein et al., Nature 373 (1995), 438) or control human (50 µg/ml) IgG-1. Cell death was assessed after a further 48 h by propidium iodide (PI) uptake (Klas et al., Int. Immunol. 5 (1993), 625.
as §2, with “AICD.” for “AICD. Indeed, depending on the blood donors, vitamin E reduced AICD by 20-50%.”

For assay [9], the system named is Egr binding site. The assay can be described thus: Luciferase reporter assay in J-27 T cells, three copies of the Egr consensus binding site (control). It is filed as cell-based. The following applies: J-27 cells, 50 µM vitamin E 1 h, PMA/ionomycin 8 h, control (Fig. 4).
Source text: as §5, §6

Turning to `Cc1c(C)c2c(c(C)c1O)CC[C@@](C)(CCC[C@H](C)CCC[C@H](C)CCCC(C)C)O2` [vitamin E, α-tocopherol], the “NF-Y binding (constitutive loading control)” value in assay [1] is recorded as “not affected”. The AICD entry in assay [2] (31 HIV positive individuals, α-CD3, 25 µM vitamin E added 1 h before stimulation, 48 h (Fig. 6B)) is given as “greatly reduced”. Besides, the “reduction of AICD compared with that obtained by CD95-Fc” value in assay [2] (HIV positive individuals, 25 µM vitamin E vs 50 µg/ml CD95-Fc (Fig. 6B)) is reported as “even more pronounced”. The “levels of IFNγ mRNA” value in [3] was “did not significantly influence”. Moreover, the “binding of NF-κB to its binding sites of the CD95L promoter (-530 and -50 region)” value in [4] is on record as “prevented binding”. Moreover, the “binding of AP-1 to its binding site of the CD95L promoter (+90 region)” value in assay [5] is recorded as “prevented binding”. Besides, the “expression of CD95L mRNA” value in assay [6] is “completely blocked in most patients”. In assay [7], the “luciferase expression driven by the NF-κB site of the CD95L promoter” value is on record as “greatly reduced”. Further, the “reduced AICD” value in assay [8] was 20-50%. The “luciferase expression driven by the Egr binding site” value in assay [9] is “did not affect”.
